Source: patent publication US20250221968A1, “TREATMENTS AND METHODS FOR INCREASING DOPAMINE” (Oxford University Innovation Limited, priority 2022, published 2025)
“Also recorded” adds a separate entry of the source.

How the values were obtained:
nAChRs [1] = assay: Ex vivo slice voltammetry (FCV): [DA]o evoked by light pulse after prior electrical stimulus, striatal slices from DAT-Cre mice; type: cell-based, mouse; conditions: DHβE 1 μM
Text: (§1) Stimulations were timed to avoid FCV scans.
The Inventors also explored whether prior ChI activation limits subsequent DA release when driven by targeted optogenetic activation of DA axons (DADA). The Inventors used an electrical stimulus to initially drive DA release (DADA+DAChI) and then assessed DADA driven by a subsequent light activation of ChR2-expressing DA axons in ex vivo striatal slices from DAT-Cre mice (FIG. 2a,b). […] For inter-stimulus intervals <100 ms (DLS) or <50 ms (NAcc), this depression was relieved when a nAChR antagonist was present (DHβE, 1 μM).

nAChRs [2] = assay: Calcium imaging of GCaMP6f in DA axons in DLS, ex vivo slices of DAT-Cre:Ai95D mice; type: cell-based, mouse; conditions: DHβE 1 μM
Experimental: As in a previous study^21, an Olympus BX51WI microscope equipped with a OptoLED Lite system (CAIRN Research), Prime Scientific CMOS (sCMOS) Camera (Teledyne Photometrics), and a ×40/0.8 NA water-objective (Olympus UK) was used for wide-field fluorescence imaging of GCaMP6f in dopaminergic axons in DLS in ex vivo slices in response to single and trains (4 pulses, 100 Hz) of electrical stimulus pulses. Images were acquired at 16.6 Hz frame rate every 2.5 min using Micro-Manager 1.4, with stimulation and recording synchronised using custom-written procedures in Igor Pro 6 (WaveMetrics) and an ITC-18 A/D board (Instrutech). Image files were analysed with Matlab R2019b and Fiji 1.5. The inventors extracted fluorescence intensity from the region of interest (ROI) and from an equal background area where there was no GCaMP6f expression (on the stimulating electrode). After background subtraction, the Ca^2+ transients were bleach-corrected by fitting an exponential curve function through both the baseline (2 s prior to stimulation) and the last 1 s in a 7.2 s recording window. The order of single and train stimulations was alternated and equally distributed and data were collected in duplicate before and after a change in extracellular experimental condition. Data are expressed as ΔF/F where F is the fitted curve. […]

D2 receptors = molecular target: T1, D2 receptors (Mus musculus, UniProt P61168); assay: Ex vivo slice voltammetry: DA release after light activation of ChIs, 1p vs 3p Estim, ChAT-Cre:Ai32 slices, D2 antagonism; type: cell-based; conditions: DLS, L-741,626 1 μM
T1 construct: striatal slices from ChAT-Cre: Ai32 mice; from tissue; host or cells: acute striatal slices (DLS) of ChAT-Cre:Ai32 mice
T1 sequence (P61168 whole entry): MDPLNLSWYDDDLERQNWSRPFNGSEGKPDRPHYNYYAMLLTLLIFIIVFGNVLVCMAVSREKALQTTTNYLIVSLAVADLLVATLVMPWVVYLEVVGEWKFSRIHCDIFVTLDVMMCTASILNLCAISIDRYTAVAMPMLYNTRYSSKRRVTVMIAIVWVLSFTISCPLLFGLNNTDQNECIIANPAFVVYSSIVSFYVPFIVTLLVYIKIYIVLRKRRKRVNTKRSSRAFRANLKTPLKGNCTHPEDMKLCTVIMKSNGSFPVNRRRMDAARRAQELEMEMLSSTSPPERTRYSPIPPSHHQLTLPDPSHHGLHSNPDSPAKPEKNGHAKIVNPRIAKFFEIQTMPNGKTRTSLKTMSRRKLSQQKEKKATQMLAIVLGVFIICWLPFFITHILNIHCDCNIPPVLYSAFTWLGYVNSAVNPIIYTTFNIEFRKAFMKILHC
Text: as §1

muscarinic receptors = conditions: DLS, atropine 2 μM
Experimental: For fast-scan cyclic voltammetry (FCV) in acute coronal slices, animals were anaesthetised with isoflurane. Brains were quickly removed into ice-cold, high Mg^2+ cutting solution containing in mM: 85 NaCl, 25 NaHCO3, 2.5 KCl, 1.25 NaH2PO4, 0.5 CaCl2, 7 MgCl2, 10 glucose, 65 sucrose. Brains were then blocked, and 300 μm coronal slices were cut on a vibratome (Leica VT1200S) between +1.5 to +0.5 mm from bregma containing caudate-putamen and nucleus accumbens. Slices recovered at 32° C. for 30-40 min after dissection and were subsequently kept at room temperature. Slices were maintained and recorded in artificial cerebrospinal fluid (aCSF) containing in mM: 130 NaCl, 25 NaHCO3, 2.5 KCl, 1.25 NaH2PO4, 2.5 CaCl2), 2 MgCl2, 10 glucose. The aCSF was saturated with 95% O2/5% CO2; recordings were made at 32-33° C. Extracellular DA concentration ([DA]o) was measured using FCV with 7 μm-diameter carbon fiber microelectrodes (CFMs; tip length 50-100 μm) and a Millar voltammeter (Julian Millar, Barts and the London School of Medicine and Dentistry) as previously^55. […]
The Inventors tested whether the DA release dynamics at the timepoints of ChI rebound activity are consistent with nAChR desensitisation. […] As a potential readout of the timecourse of nAChR desensitisation, the Inventors explored how the difference in [DA]o evoked by triplet versus single pulses (100 Hz) varied over time. […]

nAChRs [3] = assay: Anesthetised in vivo voltammetry in DLS; set-up: species or system mouse; conditions: urethane-anesthetised wild-type mice, mecamylamine 2 mg/kg i.p. per FIG. 4 legend
Experimental: Wild type mice were anesthetised with urethane (1.4-1.9 g/kg, i.p.; Biolab), supplemented with additional urethane (0.2 g/kg) every 1-2 hr as required. All wounds and pressure points were infiltrated with bupivacaine (0.5%). Upon reaching surgical anaesthesia, the head was fixed in a stereotaxic frame (Kopf, USA). Core temperature was maintained at 35-36° C. using a homeothermic blanket and monitored via a rectal probe (TR-100, Fine Science Tools). A round piece of skull overlying the left hemisphere was removed to target the DLS (AP+1.0 mm, ML 1.6 mm, DV 2.2 mm to Bregma). A stimulating and recording array consisting of a carbon-fiber microelectrode and a bipolar stimulating electrode (MS303/3-A/SPC, P1 Technology) was positioned in the DLS. The Ag/AgCl reference electrode was implanted in another part of the forebrain. […] The location of the tip of FCV electrode was confirmed histologically.
For striatal electrical stimulation, 0.65 mA current (200 μs) was delivered through a bipolar stimulating electrode (0.005 inch, MS303/3-A/SPC, P1 Technologies). The stimulating electrode tips were separated by ˜500 μm and were glued to the FCV recording electrode to fix the tip of the FCV electrode between the two stimulating poles. […]

nAChRs [4] = assay: 6-OHDA lesioning and cylinder test (single paw reaching), mouse model of PD; type: in vivo; conditions: unilateral 6-OHDA lesioned mice, 10 μg into lesioned striatum, 10 min after injection
Experimental: 6-OHDA Lesioning and Reaching Task: On the lesioning day, 6-hydroxydopamine was injected into the right dorsolateral striatum through the pre-implanted cannula (1 μl of a 0.9% saline solution containing 4 μg/μL 6-OHDA (Sigma-Aldrich) and 0.02% acetic acid) over 5 min. On the testing day, mecamylamine (10 μg/side) was injected via the cannula in a volume of 0.5 μl over 1 min into the lesioned (right) striatum. Animals were sacrificed immediately after behavioural testing. The 6-OHDA-induced loss of dopamine axons was confirmed by the ˜50% decrease of fluorescence intensity of TH staining in slices compared to the contralateral DLS which was measured with ImageJ (1.52p). The anterior commissure used as 0% background fluorescence. Animals were briefly sedated with isoflurane during the injection of 6-OHDA and mecamylamine.
A cylinder test was performed before and 10 min after 6-OHDA injection to confirm an acute effect of 6-OHDA. After one day of […], the test was performed again before and 10 min after mecamylamine injection. No habituation of the mice to the cylinder was conducted. During the test, mice were individually placed into a glass cylinder (diameter 19 cm, height 25 cm). […] Only wall touches with a single paw, ipsilateral or contralateral forelimb, were counted in the analysis. Data are contralateral touches expressed as a percentage of total number of single-paw touches. […]

nAChRs [5] = assay: Conditioned place preference testing after bilateral dorsal striatal infusion; type: in vivo, mouse; conditions: freely moving mice, 10 μg/side bilateral dorsal striatum, two days of conditioning
Text: Cannulae Placements: Male C57BL/6N mice (42-50 days) were anesthetised with isoflurane (5% induction; 1.5-2% maintenance) and placed on a stereotaxic frame for surgery. Bilateral injection needles (O.D. 0.21 mm, I.D. 0.11 mm, RWD, China) with the guide cannula (O.D. 0.41 mm, I.D. 0.25 mm, RWD, China) were implanted to the dorsal striatum either vertically or at a small angle from the vertical, with the tip of each cannula aimed at coordinates: AP+1.0 mm; ML+/−1.6 mm to bregma; DV-2.4 mm (from dura). Mice recovered for three days after surgery.
Conditioned Place Preference Testing: In CPP experiments, mice were placed in a 40 cm×40 cm transparent plexiglass arena which was divided into two equal chambers separated by doorway. The chambers were decorated with either horizontal or vertical stripes. The movement of animals was recorded and analysed with Smart V3.0 tracking software (Panlab, Spain).
On day 1, mice were allowed to freely shuttle between two chambers to assess place preference at baseline, expressed as % time spent in right chamber. […] On day 4, the post-conditioning chamber preference was calculated as the % of time spent in the right mecamylamine-associated chamber compared to on pre-conditioning day 1. […]

For CO[C@H]1CC=C2CCN3CCC4=C(CC(=O)OC4)[C@]23C1 [DHβE, Dihydro-β-erythroidine], the “depression of [DA]o evoked by a subsequent light pulse after an electrical stimulus” value (nAChRs [1]; DLS, inter-stimulus intervals <100 ms) was “relieved”, the “depression of [DA]o evoked by a subsequent light pulse after an electrical stimulus” value (nAChRs [1]; NAcc, inter-stimulus intervals <50 ms) was “relieved” and the “axonal GCaMP6f fluorescence for a 4-pulse train (100 Hz) compared to a single pulse” value (nAChRs [2]) was “markedly greater”.
In the case of OC1(c2ccc(Cl)cc2)CCN(Cc2c[nH]c3ccccc23)CC1 [L-741,626], the “dynamic DA release response after light activation of ChIs (100-400 ms interval)” value (D2 receptors) is reported as “persists”.
In the case of CN1[C@@H]2CC[C@H]1C[C@@H](OC(=O)C(CO)c1ccccc1)C2 (some centres unmarked) [atropine], the “dynamic DA release response after light activation of ChIs (100-400 ms interval)” value (muscarinic receptors) is reported as “persists”.
CNC1(C)C2CCC(C2)C1(C)C (centres unmarked) [mecamylamine] was tested, and the “[DA]o evoked by local striatal stimulation with brief electrical pulse trains” value (nAChRs [3]) was “significantly increased”, the “motor deficits: contralateral forelimb single-paw touching in cylinder test” value (nAChRs [4]) was “reduces deficits; also recorded: remediated these motor deficits” and the “conditioned-place preference for the drug-conditioned chamber” value (nAChRs [5]) was “developed a conditioned-place preference”.
